Data published in patent publication US8815857B2 (Boehringer Ingelheim International GmbH, priority 2011, dated 2014).
Values after ≈ are worked out from the molar mass of the structure shown.

Legend:
[1] = biological target: T1, human soluble guanylate cyclase alpha 1 and beta 1 subunits (sGC) stably expressed in Chinese hamster ovary cells (Homo sapiens, UniProt Q02108+Q02153); assay: sGC cellular activator assay: cGMP in CHO cells expressing human sGC, preincubated with ODQ; type: cell-based; conditions: 40 microM ODQ preincubation, 30 min at room temperature, presence or absence of 50% human serum not given, read-out: EC50 nM, Activity of Compounds in Cellular Assay
T1 construct: expressed in transfected cells; host or cells: Chinese hamster ovary cells, stably transfected
T1 sequence (Q02108 1-690 partner): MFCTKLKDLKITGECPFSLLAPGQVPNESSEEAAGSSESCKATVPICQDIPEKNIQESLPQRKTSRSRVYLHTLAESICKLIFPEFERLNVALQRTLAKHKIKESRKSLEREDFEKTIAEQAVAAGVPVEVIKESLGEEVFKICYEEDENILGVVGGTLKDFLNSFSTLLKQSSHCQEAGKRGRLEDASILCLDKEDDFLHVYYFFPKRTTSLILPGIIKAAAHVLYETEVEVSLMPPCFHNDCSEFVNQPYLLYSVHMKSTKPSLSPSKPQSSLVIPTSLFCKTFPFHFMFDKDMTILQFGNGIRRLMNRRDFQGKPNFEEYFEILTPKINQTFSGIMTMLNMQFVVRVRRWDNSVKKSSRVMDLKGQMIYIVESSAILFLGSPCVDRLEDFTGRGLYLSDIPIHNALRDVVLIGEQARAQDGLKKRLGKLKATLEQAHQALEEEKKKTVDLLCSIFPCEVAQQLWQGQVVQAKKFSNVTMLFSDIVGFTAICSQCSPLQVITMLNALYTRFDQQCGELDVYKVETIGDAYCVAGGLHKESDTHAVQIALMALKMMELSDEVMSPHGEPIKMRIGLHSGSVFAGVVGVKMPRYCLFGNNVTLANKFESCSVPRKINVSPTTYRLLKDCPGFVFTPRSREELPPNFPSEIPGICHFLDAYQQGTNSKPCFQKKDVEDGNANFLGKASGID
T1 sequence (Q02153 1-619): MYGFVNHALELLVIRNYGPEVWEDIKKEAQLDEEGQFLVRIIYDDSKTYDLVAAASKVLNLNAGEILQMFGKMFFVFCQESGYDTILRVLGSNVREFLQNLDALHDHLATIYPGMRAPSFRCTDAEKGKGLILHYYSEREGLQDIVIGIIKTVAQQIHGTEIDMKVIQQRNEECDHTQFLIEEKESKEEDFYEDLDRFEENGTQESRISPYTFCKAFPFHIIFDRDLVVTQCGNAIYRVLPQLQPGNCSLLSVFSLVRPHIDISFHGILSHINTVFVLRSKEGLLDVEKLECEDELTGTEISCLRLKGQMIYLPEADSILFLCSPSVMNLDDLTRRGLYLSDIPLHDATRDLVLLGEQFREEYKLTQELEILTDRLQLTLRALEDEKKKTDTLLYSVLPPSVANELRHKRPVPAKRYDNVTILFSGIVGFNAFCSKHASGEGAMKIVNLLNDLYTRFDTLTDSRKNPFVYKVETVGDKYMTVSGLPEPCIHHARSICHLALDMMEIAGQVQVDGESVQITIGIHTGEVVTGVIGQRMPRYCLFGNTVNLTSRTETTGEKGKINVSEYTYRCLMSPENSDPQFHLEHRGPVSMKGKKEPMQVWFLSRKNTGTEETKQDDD
Summary of the method: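 EC50 values derive from HTRF cGMP measurement after test compounds act for thirty minutes at room temperature, with or without 50% human serum. Before dosing, the sGC-transfected CHO cells spend one hour with the inhibitor ODQ (40 microM) in IBMX- and 0.1% BSA-containing buffer.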

[2] = Assessment of solubility: HT solubility in pION buffer, UV spectrophotometry; conditions: for solubility: kinetic from dmso stock
Method: Solubility is measured by the following method.
DMSO stock samples at 10 mM concentration are prepared. […] The samples are pierced and 100 ul of thawed samples are transferred into the PCR plate for analysis. Each sample is run in duplicate at each pH (pH 4.5 and 7.4). Up to 95 samples can be run in replicate at 2 pH's+1 DMSO (blank).
Preparation of pH 4.5 and 7.4 Buffers:
• pH 4.5 buffer:—To 12.5 of system solution (pION)qs to 500 mL of distilled water (pH 2.85-2.90); adjust the pH to pH 4.5 with 0.5 N NaOH. • pH 7.4 buffer: To 12.5 of system solution (pION)qs to 500 mL of distilled water (pH 2.85-2.90); adjust the pH to pH 7.4 with 0.5N NaOH. […] Procedure: Preparation of UV Blank Plate:
75 ul of buffer (pH 7.4 or pH 4.5) is added to UV plate followed by addition of 70 ul of N-propanol. The solution is mixed and the blank spectrum is read using spectrophotometer.
Preparation of Reference UV Plate:
10 ul of each stock sample (including DMSO control) is added to 190 ul of N-propanol to prepare the reference stock plate. Reference stock samples are mixed and 5 ul of each stock sample is added to UV blank plate after it is read spectrophotometrically. The reference stock sample is mixed with blank solution in UV plate and the reference spectrum is read using UV spectrophotometer.
Preparation of Sample for Incubation:
Solubility at pH 7.4:6 ul of each stock sample (including DMSO control) is added to the storage plate containing 600 ul of pH 7.4 buffer, mixed and incubated for 16-19 h. The plate is sealed well during the incubation process. The DMSO content in the sample is 1.0%. The concentration in deep well plates is 100 uM
6 ul of each stock sample (including DMSO control) is added to the deep well plate containing 600 ul of pH 4.5 buffer, mixed and incubated for 16-19 h. The plate is sealed well during the incubation process. The DMSO content in the sample is 1.0%. The concentration in deep well plates is 100 uM
Preparation of Sample UV Plate:
At the end of the incubation period, 100 uL of sample from the storage plate is vacuum filtered using a filter plate. This step wets the filters and the filtrate is discarded. Another 200 ul of the sample from the deep well plate is vacuum filtered using the same filter block but a clean filter plate. 75 ul of the filtrate from the filter plate is transferred to a UV sample plate. 75 ul of N-propanol is added to this UV plate. The solution is mixed and the spectrum is read using the UV spectrophotometer.
The spectra collected for blank, reference and sample from 250-498 nm is analyzed using pION software. If the sample precipitates out, the solubility is reported as XX μg/ml.

[3] = pH 6.8, aqueous buffer, Solubility (pH 6.8), pH 6.8
[4] = pION system solution buffer, pH 7.4, pH 7.4, aqueous buffer, Solubility (pH 7.4), pH 7.4 buffer, 16-19 h incubation, 1.0% DMSO
[5] = pION system solution buffer, pH 4.5, pH 4.5, aqueous buffer, Solubility (pH 4.5), pH 4.5 buffer, 16-19 h incubation, 1.0% DMSO

Row | SMILES | EC50 [1] | Solubility (pH 4.5) ([2]; pH 4.5 buffer, 16-19 h incubation, 1.0% DMSO) | solubility [2, 3] | solubility [2, 4] | solubility [2, 5]
1 | Cc1ccc(OCc2ccc(C(=O)N3CCCCCC3)cc2C)c(-c2csc(N3C[C@H]4CC[C@@H](C3)[C@H]4C(=O)O)n2)c1 [Compound 302] | 35 nM | – | 4.6 µg/mL (≈ 8.02 µM) | – | < 0.1 µg/mL
2 | Cc1ccc(OCc2ccc(CN3CCN(C)C(=O)C3)cc2C)c(-c2csc(N3CC4CCC(C3)C4C(=O)O)n2)c1 (centres unmarked) [Compound 289] | 3.4 nM | – | 35 µg/mL (≈ 60.9 µM) | – | 1.5 µg/mL (≈ 2.61 µM)
3 | Cc1ccc(OCc2ccc(C(=O)N3CCCCC3)cc2C)c(-c2csc(N3CCCC(C)(C(=O)O)CC3)n2)c1 (centres unmarked) [Compound 229] | 76 nM | – | 21 µg/mL (≈ 37.4 µM) | – | 0.4 µg/mL (≈ 0.712 µM)
4 | Cc1ccc(OCc2ccc(C(=O)N(C)CCO)cc2C)c(-c2csc(N3C[C@H]4CC[C@@H](C3)[C@H]4C(=O)O)n2)c1 [Compound 297] | 100 nM | – | 63 µg/mL (≈ 115 µM) | – | 1.7 µg/mL (≈ 3.09 µM)
5 | Cc1ccc(OCc2ccc(CN3CCN(C)C(=O)C3)cc2C)c(-c2csc(N3C[C@H]4CC[C@@H](C3)[C@@]4(C)C(=O)O)n2)c1 [Compound 269] | 9.5 nM | – | 16 µg/mL (≈ 27.2 µM) | – | 0.28 µg/mL (≈ 0.476 µM)
6 | Cc1ccc(OCc2ccc(C(=O)N3CCCCC3)cc2C)c(-c2nc(N3C[C@H]4CC[C@@H](C3)[C@H]4C(=O)O)sc2F)c1 [Compound 202, 3-[5-fluoro-4-[5-methyl-2-[[2-methyl-4-(piperidine-1-carbonyl)phenyl]methoxy]phenyl]thiazol-2-yl]-3-azabicyclo[3.2.1]octane-8(syn)-carboxylic acid] | 310 nM | – | 91 µg/mL (≈ 158 µM) | > 59 µg/mL | 97 µg/mL (≈ 168 µM)
7 | Cc1ccc(OCc2ccc(CN3CCOC(C)C3)cc2C#N)c(-c2csc(N3C[C@H]4CC[C@@H](C3)[C@H]4C(=O)O)n2)c1 (some centres unmarked) [Compound 238] | 39 nM | – | 5.2 µg/mL (≈ 9.08 µM) | – | 4.9 µg/mL (≈ 8.56 µM)
8 | Cc1ccc(OCc2c(C)cc(C(=O)N3CCN(C)C(=O)C3)cc2C)c(-c2csc(N3C[C@H]4CC[C@@H](C3)[C@H]4C(=O)O)n2)c1 [Compound 284] | 100 nM | – | 66 µg/mL (≈ 109 µM) | – | 0.65 µg/mL (≈ 1.08 µM)
9 | COCC1CN(Cc2ccc(COc3ccc(C)cc3-c3csc(N4C[C@H]5CC[C@@H](C4)[C@H]5C(=O)O)n3)c(C#N)c2)CCO1 (some centres unmarked) [Compound 212] | 100 nM | – | 32 µg/mL (≈ 53.1 µM) | – | 11 µg/mL (≈ 18.2 µM)
10 | Cc1ccc(OCc2ccc(CN3CCOCC3)cc2OC(F)(F)F)c(-c2csc(N3C[C@H]4CC[C@@H](C3)[C@H]4C(=O)O)n2)c1 [Compound 280] | 16 nM | – | 0.9 µg/mL (≈ 1.46 µM) | – | 0.72 µg/mL (≈ 1.17 µM)
11 | CCCC1(C(=O)O)C2CCC1CN(c1nc(-c3cc(C)ccc3OCc3ccc(C(=O)N4CCCCC4)cc3C)cs1)C2 (centres unmarked) [Compound 262] | 980 nM | – | 12 µg/mL (≈ 19.9 µM) | – | < 0.1 µg/mL
12 | Cc1ccc(OCc2ccc(CN3CCOCC3)cc2C)c(-c2csc(N3CC[C@@H](C(=O)O)[C@H]3C)n2)c1 [Compound 242] | 90 nM | – | 37 µg/mL (≈ 70.9 µM) | – | 53 µg/mL (≈ 102 µM)
13 | Cc1ccc(OCc2ccc(C(=O)N3CCCCC3)cc2C)c(-c2csc(N3CC[C@@]4(C(=O)O)C[C@H]4C3)n2)c1 [Compound 226] | 13 nM | – | 15 µg/mL (≈ 27.5 µM) | – | < 0.1 µg/mL
14 | Cc1ccc(OCc2ccc(CN3CCOCC3)cc2C)c(-c2csc(N3C[C@H]4CC[C@@H](C3)[C@@]4(C)C(=O)O)n2)c1 [Compound 270, 8-methyl-3-{4-[5-methyl-2-(2-methyl-4-morpholin-4-ylmethyl-benzyloxy)-phenyl]-thiazol-2-yl}-3-aza-bicyclo[3.2.1]octane-8(syn)-carboxylic acid] | 96 nM | – | – | > 56 µg/mL | 17 µg/mL (≈ 30.3 µM)
15 | Cc1ccc(OCc2ccc(CN3CCOCC3)cc2C)c(-c2csc(N3CC(CC(=O)O)C3)n2)c1 [Compound 254] | 450 nM | – | 51 µg/mL (≈ 100 µM) | – | 40 µg/mL (≈ 78.8 µM)
16 | Cc1ccc(OCc2ccc(CN3CCS(=O)(=O)CC3)cc2C)c(-c2csc(N3CC[C@]4(C(=O)O)C[C@@H]4C3)n2)c1 [Compound 222] | 110 nM | – | 3.3 µg/mL (≈ 5.67 µM) | 30 µg/mL (≈ 51.6 µM) | < 0.1 µg/mL

Other lines, results leading:

Row | EC50 [1] | Solubility (pH 4.5) ([2]; pH 4.5 buffer, 16-19 h incubation, 1.0% DMSO) | solubility [2, 3] | solubility [2, 4] | solubility [2, 5] | SMILES
17 | 23 nM | 0.1 μg/mL | 61 µg/mL (≈ 108 µM) | > 58 µg/mL | – | COCCN(C)C(=O)c1ccc(COc2ccc(C)cc2-c2csc(N3C[C@H]4CC[C@@H](C3)[C@H]4C(=O)O)n2)c(C)c1 [Compound 344]
18 | 42 nM | – | 63 µg/mL (≈ 107 µM) | – | < 0.1 µg/mL | Cc1ccc(OCc2ccc(C(=O)N3CCC(CO)CC3)cc2C)c(-c2csc(N3C[C@H]4CC[C@@H](C3)[C@H]4C(=O)O)n2)c1 [Compound 309]
19 | 61 nM | – | 65 µg/mL (≈ 113 µM) | – | 0.21 µg/mL (≈ 0.365 µM) | Cc1ccc(OCc2ccc(C(=O)N3CC[C@@H](CO)C3)cc2C)c(-c2csc(N3C[C@H]4CC[C@@H](C3)[C@H]4C(=O)O)n2)c1 [Compound 326]
20 | 41 nM | – | 71 µg/mL (≈ 120 µM) | 37 µg/mL (≈ 62.5 µM) | 0.27 µg/mL (≈ 0.456 µM) | Cc1ccc(OCc2ccc(C(=O)N(C)CCC(C)(C)O)cc2C)c(-c2csc(N3C[C@H]4CC[C@@H](C3)[C@H]4C(=O)O)n2)c1 [Compound 348]
21 | 110 nM | – | 55 µg/mL (≈ 93.3 µM) | – | < 0.1 µg/mL | Cc1ccc(OCc2ccc(C(=O)N(C)CC3(CO)CC3)cc2C)c(-c2csc(N3C[C@H]4CC[C@@H](C3)[C@H]4C(=O)O)n2)c1 [Compound 342]
22 | 260 nM | – | 70 µg/mL (≈ 121 µM) | > 53 µg/mL | 5.8 µg/mL (≈ 10.1 µM) | CNC(=O)CN(C)C(=O)c1ccc(COc2ccc(C)cc2-c2csc(N3C[C@H]4CC[C@@H](C3)[C@H]4C(=O)O)n2)c(C)c1 [Compound 347]
23 | 43 nM | – | 58 µg/mL (≈ 100 µM) | – | 0.13 µg/mL (≈ 0.225 µM) | COCCCN(C)C(=O)c1ccc(COc2ccc(C)cc2-c2csc(N3C[C@H]4CC[C@@H](C3)[C@H]4C(=O)O)n2)c(C)c1 [Compound 338]
24 | 20 nM | – | 41 µg/mL (≈ 68.8 µM) | – | < 0.1 µg/mL | Cc1ccc(OCc2ccc(C(=O)N3CCC(F)(F)CC3)cc2C)c(-c2csc(N3C[C@H]4CC[C@@H](C3)[C@H]4C(=O)O)n2)c1 [Compound 317]
25 | 29 nM | – | 63 µg/mL (≈ 107 µM) | – | 58 µg/mL (≈ 98.5 µM) | Cc1ccc(OCc2ccc(C(=O)N3CC[C@H](N(C)C)C3)cc2C)c(-c2csc(N3C[C@H]4CC[C@@H](C3)[C@H]4C(=O)O)n2)c1 [Compound 311]
26 | 24 nM | – | 1.6 µg/mL (≈ 2.73 µM) | – | 2.7 µg/mL (≈ 4.6 µM) | Cc1ccc(OCc2ccc(CN3C[C@@H](C)O[C@@H](C)C3)cc2C#N)c(-c2csc(N3C[C@H]4CC[C@@H](C3)[C@H]4C(=O)O)n2)c1 [Compound 356]
27 | 30 nM | – | 35 µg/mL (≈ 59.3 µM) | – | 0.14 µg/mL (≈ 0.237 µM) | CCOC1CCN(C(=O)c2ccc(COc3ccc(C)cc3-c3csc(N4C[C@H]5CC[C@@H](C4)[C@H]5C(=O)O)n3)c(C)c2)C1 (some centres unmarked) [Compound 332]
28 | 140 nM | – | 47 µg/mL (≈ 78.4 µM) | – | 42 µg/mL (≈ 70 µM) | Cc1ccc(OCc2ccc(C(=O)N(C)Cc3cncn3C)cc2C)c(-c2csc(N3C[C@H]4CC[C@@H](C3)[C@H]4C(=O)O)n2)c1 [Compound 331]
29 | 19 nM | – | 0.26 µg/mL (≈ 0.442 µM) | – | < 0.1 µg/mL | Cc1ccc(OCc2ccc(C(=O)N3C[C@H]4CC[C@@H](C3)O4)cc2C)c(-c2csc(N3C[C@H]4CC[C@@H](C3)[C@H]4C(=O)O)n2)c1 [Compound 340]
30 | 30 nM | – | 8.1 µg/mL (≈ 13.8 µM) | – | 0.14 µg/mL (≈ 0.239 µM) | Cc1ccc(OCc2ccc(CN3CCOC(C)(C)C3)cc2C#N)c(-c2csc(N3C[C@H]4CC[C@@H](C3)[C@H]4C(=O)O)n2)c1 [Compound 358]
